From patent US12043632B2, “6-heteroaryloxy benzimidazoles and azabenzimidazoles as JAK2 inhibitors” (Ajax Therapeutics, Inc., priority 2020, dated 2024)

target: T1, JAK2 (JH1domain-catalytic, Y1007F,Y1008F) kinase (Homo sapiens, UniProt O60674, Y1007F/Y1008F); assay: JAK2 JH1 Domain Binding Assay; conditions: qPCR readout
T1 construct: JAK2 (JH1domain-catalytic, Y1007F,Y1008F) kinase was expressed as N-terminal fusion; made in house; host or cells: transiently transfected HEK293 cells
T1 sequence (O60674 849-1124 Y1007F/Y1008F limits assumed): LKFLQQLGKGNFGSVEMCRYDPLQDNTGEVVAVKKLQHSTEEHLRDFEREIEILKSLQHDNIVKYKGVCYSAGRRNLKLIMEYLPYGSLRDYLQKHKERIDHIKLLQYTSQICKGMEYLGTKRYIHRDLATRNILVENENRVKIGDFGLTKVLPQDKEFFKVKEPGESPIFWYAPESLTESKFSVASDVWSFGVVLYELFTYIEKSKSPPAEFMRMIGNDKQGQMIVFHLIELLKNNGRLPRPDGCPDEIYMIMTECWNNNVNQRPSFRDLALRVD

Question: Which Kd does the source give for `Cn1cc(C(F)(F)F)cc(Nc2nc3ncc(Oc4cnn5cc(OCCN6CCOCC6)ccc45)c(C#N)c3n2C)c1=O` [Example I-336, 1 1-methyl-2-((1-methyl-2-oxo-5-(trifluoromethyl)-1,2-dihydropyridin-3-yl)amino)-6-((6-(2-morpholinoethoxy)pyrazolo[1,5-a]pyridin-3-yl)oxy)-1H-imidazo[4,5-b]pyridine-7-carbonitrile] here?
Answer: < 10 nM

Question: `Cn1cc(C(F)(F)F)cc(Nc2nc3ncc(Oc4cnc5[nH]nc(C6CC6)c5c4)c(C#N)c3n2C)c1=O` [Example I-337, 6-((3-cyclopropyl-1H-pyrazolo[3,4-b]pyridin-5-yl)oxy)-1-methyl-2-((1-methyl-2-oxo-5-(trifluoromethyl)-1,2-dihydropyridin-3-yl)amino)-1H-imidazo[4,5-b]pyridine-7-carbonitrile] was tested. Which Kd did it give?
Answer: < 10 nM

Question: For `CNc1cn2ncc(Oc3cnc4nc(Nc5cc6n(n5)CCCC6(C)C)n(C)c4c3Cl)c2cn1` [Example I-338, 7-chloro-N-(4,4-dimethyl-4,5,6,7-tetrahydropyrazolo[1,5-a]pyridin-2-yl)-1-methyl-6-((6-(methylamino)pyrazolo[1,5-a]pyrazin-3-yl)oxy)-1H-imidazo[4,5-b]pyridin-2-amine], which Kd is on record?
Answer: < 10 nM

Question: Which Kd does the source give for `CNc1cn2ncc(Oc3cnc4nc(Nc5cc(-n6cnc(C)c6)cc(C(F)(F)F)c5)n(C)c4c3Cl)c2cn1` [Example I-339, 7-chloro-1-methyl-N-(3-(4-methyl-1H-imidazol-1-yl)-5-(trifluoromethyl)phenyl)-6-((6-(methylamino)pyrazolo[1,5-a]pyrazin-3-yl)oxy)-1H-imidazo[4,5-b]pyridin-2-amine] here?
Answer: < 10 nM

Question: For `CNc1cn2ncc(Oc3cnc4nc(Nc5cc(C(F)(F)F)n([C@@H]6CCOC6)n5)n(C)c4c3Cl)c2cn1` [Example I-340, (R)-7-chloro-1-methyl-6-((6-(methylamino)pyrazolo[1,5-a]pyrazin-3-yl)oxy)-N-(1-(tetrahydrofuran-3-yl)-5-(trifluoromethyl)-1H-pyrazol-3-yl)-1H-imidazo[4,5-b]pyridin-2-amine], which Kd is on record?
Answer: < 10 nM

Question: For `Cc1n[nH]c2ncc(Oc3cnc4nc(Nc5cc(C(F)(F)F)cn(C)c5=O)n(C)c4c3C#N)cc12` [Example I-341, 1-methyl-6-((3-methyl-1H-pyrazolo[3,4-b]pyridin-5-yl)oxy)-2-((1-methyl-2-oxo-5-(trifluoromethyl)-1,2-dihydropyridin-3-yl)amino)-1H-imidazo[4,5-b]pyridine-7-carbonitrile], which Kd is on record?
Answer: < 10 nM

Question: `Cn1c(Nc2ccc(CN3CCCC3)c(C(F)(F)F)c2)nc2ncc(Oc3cnn4ccncc34)c(C#N)c21` [Example I-342, 1-methyl-6-(pyrazolo[1,5-a]pyrazin-3-yloxy)-2-((4-(pyrrolidin-1-ylmethyl)-3-(trifluoromethyl)phenyl)amino)-1H-imidazo[4,5-b]pyridine-7-carbonitrile] was tested. Which Kd did it give?
Answer: 10 to 50 nM

Question: Which Kd does the source give for `CCn1c(C(C)(C)C)ncc(Nc2nc3ncc(Oc4cnn5cc(NC)ncc45)c(Cl)c3n2C)c1=O` [Example I-345, 2-(tert-butyl)-5-((7-chloro-1-methyl-6-((6-(methylamino)pyrazolo[1,5-a]pyrazin-3-yl)oxy)-1H-imidazo[4,5-b]pyridin-2-yl)amino)-3-ethylpyrimidin-4(3H)-one] here?
Answer: 10 to 50 nM

Question: With `CNc1cn2ncc(Oc3cnc4nc(Nc5cc(C(C)(C)C)n([C@H]6CCN(C)C6)n5)n(C)c4c3Cl)c2cn1` [Example I-346, (S)—N-(5-(tert-butyl)-1-(1-methylpyrrolidin-3-yl)-1H-pyrazol-3-yl)-7-chloro-1-methyl-6-((6-(methylamino)pyrazolo[1,5-a]pyrazin-3-yl)oxy)-1H-imidazo[4,5-b]pyridin-2-amine] as the compound, how does the Kd read?
Answer: 10 to 50 nM

Question: Which Kd does the source give for `CNc1cn2ncc(Oc3cnc4nc(Nc5cc(C(C)(C)C)n([C@@H]6CCN(C)C6)n5)n(C)c4c3Cl)c2cn1` [Example I-347, (R)—N-(5-(tert-butyl)-1-(1-methylpyrrolidin-3-yl)-1H-pyrazol-3-yl)-7-chloro-1-methyl-6-((6-(methylamino)pyrazolo[1,5-a]pyrazin-3-yl)oxy)-1H-imidazo[4,5-b]pyridin-2-amine] here?
Answer: 50 to 1000 nM

Question: With `CNc1cn2ncc(Oc3cnc4nc(Nc5cc(C(=O)N(C)C)c(F)c(C(F)(F)F)c5)n(C)c4c3Cl)c2cn1` [Example I-348, 5-((7-chloro-1-methyl-6-((6-(methylamino)pyrazolo[1,5-a]pyrazin-3-yl)oxy)-1H-imidazo[4,5-b]pyridin-2-yl)amino)-2-fluoro-N,N-dimethyl-3-(trifluoromethyl)benzamide] as the compound, how does the Kd read?
Answer: 10 to 50 nM

Question: Which Kd does the source give for `COc1c[nH]c2ncc(Oc3cnc4nc(Nc5cc(C(F)(F)F)cn(C)c5=O)n(C)c4c3C#N)cc12` [Example I-349, 6-((3-methoxy-1H-pyrrolo[2,3-b]pyridin-5-yl)oxy)-1-methyl-2-((1-methyl-2-oxo-5-(trifluoromethyl)-1,2-dihydropyridin-3-yl)amino)-1H-imidazo[4,5-b]pyridine-7-carbonitrile] here?
Answer: < 10 nM

Question: `CNc1cn2ncc(Oc3cnc4nc(Nc5cc(N6CCN(C)CC6)cc(C(F)(F)F)c5)n(C)c4c3Cl)c2cn1` [Example I-351, 7-chloro-1-methyl-6-((6-(methylamino)pyrazolo[1,5-a]pyrazin-3-yl)oxy)-N-(3-(4-methylpiperazin-1-yl)-5-(trifluoromethyl)phenyl)-1H-imidazo[4,5-b]pyridin-2-amine] was tested. Which Kd did it give?
Answer: 10 to 50 nM

Question: How did the Kd turn out when `CNc1cn2ncc(Oc3cnc4nc(Nc5cc(C6CCN(C)CC6)cc(C(F)(F)F)c5)n(C)c4c3Cl)c2cn1` [Example I-353, 7-chloro-1-methyl-6-((6-(methylamino)pyrazolo[1,5-a]pyrazin-3-yl)oxy)-N-(3-(1-methylpiperidin-4-yl)-5-(trifluoromethyl)phenyl)-1H-imidazo[4,5-b]pyridin-2-amine] was run?
Answer: < 10 nM

Question: How did the Kd turn out when `CNc1cc(F)c2c(Oc3cnc4nc(Nc5cc(C(F)(F)F)cn(C)c5=O)n(C)c4c3Cl)cnn2c1` [Example I-354, 3-((7-chloro-6-((4-fluoro-6-(methylamino)pyrazolo[1,5-a]pyridin-3-yl)oxy)-1-methyl-1H-imidazo[4,5-b]pyridin-2-yl)amino)-1-methyl-5-(trifluoromethyl)pyridin-2(1H)-one] was run?
Answer: < 10 nM

Question: With `COCCOc1ccc2c(Oc3cnc4nc(Nc5cc(C(F)(F)F)cn(C)c5=O)n(C)c4c3Cl)cnn2c1` [Example I-355, 3-((7-chloro-6-((6-(2-methoxyethoxy)pyrazolo[1,5-a]pyridin-3-yl)oxy)-1-methyl-1H-imidazo[4,5-b]pyridin-2-yl)amino)-1-methyl-5-(trifluoromethyl)pyridin-2(1H)-one] as the compound, how does the Kd read?
Answer: < 10 nM

Question: Which Kd does the source give for `CNc1cn2ncc(Oc3cnc4nc(Nc5cc(CN6CC7(COC7)C6)cc(C(F)(F)F)c5)n(C)c4c3Cl)c2cn1` [Example I-356, N-(3-((2-oxa-6-azaspiro[3.3]heptan-6-yl)methyl)-5-(trifluoromethyl)phenyl)-7-chloro-1-methyl-6-((6-(methylamino)pyrazolo[1,5-a]pyrazin-3-yl)oxy)-1H-imidazo[4,5-b]pyridin-2-amine] here?
Answer: 10 to 50 nM

Question: With `CNc1cn2ncc(Oc3cnc4nc(Nc5cc(CN6CCC6)cc(C(F)(F)F)c5)n(C)c4c3Cl)c2cn1` [Example I-357, N-(3-(azetidin-1-ylmethyl)-5-(trifluoromethyl)phenyl)-7-chloro-1-methyl-6-((6-(methylamino)pyrazolo[1,5-a]pyrazin-3-yl)oxy)-1H-imidazo[4,5-b]pyridin-2-amine] as the compound, how does the Kd read?
Answer: 50 to 1000 nM

Question: How did the Kd turn out when `CNc1cn2ncc(Oc3cnc4nc(Nc5cc(CN6CC(F)C6)cc(C(F)(F)F)c5)n(C)c4c3Cl)c2cn1` [Example I-358, 7-chloro-N-(3-((3-fluoroazetidin-1-yl)methyl)-5-(trifluoromethyl)phenyl)-1-methyl-6-((6-(methylamino)pyrazolo[1,5-a]pyrazin-3-yl)oxy)-1H-imidazo[4,5-b]pyridin-2-amine] was run?
Answer: 50 to 1000 nM

Question: `CNc1cn2ncc(Oc3cnc4nc(Nc5ccc(CN6CC[C@H](OC)C6)c(C(F)(F)F)c5)n(C)c4c3Cl)c2cn1` [Example I-360, (S)-7-chloro-N-(4-((3-methoxypyrrolidin-1-yl)methyl)-3-(trifluoromethyl)phenyl)-1-methyl-6-((6-(methylamino)pyrazolo[1,5-a]pyrazin-3-yl)oxy)-1H-imidazo[4,5-b]pyridin-2-amine] was tested. Which Kd did it give?
Answer: 50 to 1000 nM

Question: `CNc1cn2ncc(Oc3cnc4nc(Nc5ccc(CN6CC[C@@H](OC)C6)c(C(F)(F)F)c5)n(C)c4c3Cl)c2cn1` [Example I-361, (R)-7-chloro-N-(4-((3-methoxypyrrolidin-1-yl)methyl)-3-(trifluoromethyl)phenyl)-1-methyl-6-((6-(methylamino)pyrazolo[1,5-a]pyrazin-3-yl)oxy)-1H-imidazo[4,5-b]pyridin-2-amine] was tested. Which Kd did it give?
Answer: 50 to 1000 nM

Question: `Cn1c(Nc2cc3n(n2)CCCC3(F)F)nc2ncc(Oc3cnn4ccncc34)c(C#N)c21` [Example I-362, 2-((4,4-difluoro-4,5,6,7-tetrahydropyrazolo[1,5-a]pyridin-2-yl)amino)-1-methyl-6-(pyrazolo[1,5-a]pyrazin-3-yloxy)-1H-imidazo[4,5-b]pyridine-7-carbonitrile] was tested. Which Kd did it give?
Answer: 10 to 50 nM

Question: `COc1cn2ncc(Oc3cnc4nc(Nc5cc(C(F)(F)F)cn(C)c5=O)n(C)c4c3Cl)c2cn1` [Example I-363, 3-((7-chloro-6-((6-methoxypyrazolo[1,5-a]pyrazin-3-yl)oxy)-1-methyl-1H-imidazo[4,5-b]pyridin-2-yl)amino)-1-methyl-5-(trifluoromethyl)pyridin-2(1H)-one] was tested. Which Kd did it give?
Answer: 10 to 50 nM

Question: For `COc1cn2ncc(Oc3cnc4nc(Nc5cc(C(F)(F)F)cn(C)c5=O)n(C)c4c3C#N)c2cn1` [Example I-364, 6-((6-methoxypyrazolo[1,5-a]pyrazin-3-yl)oxy)-1-methyl-2-((1-methyl-2-oxo-5-(trifluoromethyl)-1,2-dihydropyridin-3-yl)amino)-1H-imidazo[4,5-b]pyridine-7-carbonitrile], which Kd is on record?
Answer: 10 to 50 nM

Question: Which Kd does the source give for `COCCOc1cn2ncc(Oc3cnc4nc(Nc5cc(C(F)(F)F)cn(C)c5=O)n(C)c4c3Cl)c2cn1` [Example I-365, 3-((7-chloro-6-((6-(2-methoxyethoxy)pyrazolo[1,5-a]pyrazin-3-yl)oxy)-1-methyl-1H-imidazo[4,5-b]pyridin-2-yl)amino)-1-methyl-5-(trifluoromethyl)pyridin-2(1H)-one] here?
Answer: < 10 nM
